Values joined by “and” are separate entries in the source; they are usually repeats but may differ in a detail not shown here. Equal entries are not always repeated. Where two headings read alike, the source gives them in different places.
How the values were obtained:
CYP3A5 = CYP3A5 (Homo sapiens, UniProt P20815); experiment: CYP phenotyping, recombinant CYP3A5
Description: Bactosomes prepared from E. coli that heterologously expressed individual human CYP isoforms together with human CYP reductase were obtained from CYPEX LTD (Scotland, UK), and stored at −80 °C prior to use. […] Timepoints were taken at 0, 5, 10, 15, 20, and 30 min. Substrate disappearance was used to calculate intrinsic clearance (Clint) and half-life (t1/2). All incubations were performed in triplicate. […] The chemical inhibitors for CYP1A2, 2A6, 2B6, 2C8, 2C9, 2C19, 2D6, and 3A4 were furafylline, tranylcypromine, ticlopidine, montelukast, sulfaphenazole, N-3-benzylnirvanol, quinidine, and ketoconazole, respectively. Timepoints were collected at 0, 15, 30, 45, and 60 min, and the remaining percentage of the parent drug at each timepoint was calculated (the calculation details are available in the Supplementary Materials). All incubations were performed in triplicate.
The slope, k, was determined by linear regression of the natural logarithm of percent parent disappearance vs. incubation time curve. Peak areas for test article and internal standard were determined from extracted ion chromatograms. The peak area ratio was used to calculated for the results.
The half-life value (t1/2 rCYPi) was determined from the slope value:
Conversion of the t1/2 rCYPi (in min) into the intrinsic clearance (Clint rCYPi in μL/min/pmol) was done using the following equation:
1.3.2 For inhibition ratio (%) (Liver microsomes with and without inhibitors) The slope value, k, was determined by linear regression of the natural logarithm of the remaining percentage of the parent drug vs. incubation time curve. If the turnover was not significant (T-test with p<0.05 was not obtained) and the percentage remaining at last time point was ≥ 80%, the k value was

[1] = Bidirectional permeability across Caco-2 cell monolayers; format: in vitro ADME; details: human; for recovery at 120 min, 1 μM: Caco-2, Caco-2, 1 μM; for recovery at 120 min, 5 μM: Caco-2, Caco-2, 5 μM; for recovery at 120 min, 15 μM: Caco-2, Caco-2, 15 μM
Description: (§1) The bidirectional permeability and absorption mechanism of ZB716 was evaluated across Caco-2 cell monolayers.
(§2) The apical-to-basolateral (A–B) and basolateral-to-apical (B–A) transport of ZB716 in HBSS (25 mM HEPES) with 1% BSA was measured across Caco-2 cell monolayers. […] All incubations were performed in triplicate, and the integrity of the cell monolayers was confirmed using the marker Lucifer yellow.
(§3) The slope, k, was determined by linear
(§4) using the following equation: […]
(§5) 1.4 Intestinal Mucosal Permeation of ZB716
(§6) Papp= VAArea х timeх ሾdrugሿreceiverሾdrugሿinitial,donor

Caco-2 cell monolayers = experiment: as above; format: in vitro ADME; details: Caco-2, according to the results at 15 μM
Description: as §1, §2, §3, §4, §5, §6

[2] = Plasma protein binding by equilibrium dialysis, rat; format: in vitro ADME; details: plasma (EDTA-K2 as anticoagulant)
Description: (§7) The in vitro binding of ZB716 to plasma proteins was determined by equilibrium dialysis technique in mouse, rat, dog, monkey, and human plasma (EDTA-K2 as anticoagulant), over the concentration range of 0.1–10 μM. The free concentration of ZB716 was below the lower limit of quantitation at 0.1, 1, and 10 μM in human, monkey, dog, rat, and mouse plasma.
(§8) The equilibrium dialysis method was used to investigate the in vitro binding of ZB716 to human, monkey, dog, rat, and mouse plasma proteins. The dialysis phosphate buffer solution (100 mM, pH 7.4) and plasma samples containing 0.1, 1, and 10 μM of ZB716 were added to separate chambers of dialysis wells of the HTDialysis device. The dialysis plate was placed in an incubator at 37 °C with 5% CO2 at approximately 100 rpm for 6 h. After incubation, the seal was removed, and 50 μL each of post-dialysis samples was pipetted from both the buffer and plasma chambers into fresh 96-well plates. The samples were analyzed via UPLC–MS/MS. The bound fraction, unbound fraction, recovery (%), and remaining (%) were calculated by Equations (2)–(5):%Unbound = (Conc.buffer chamber/Conc.plasma chamber) × 100(2) %Bound = 100% − %Unbound (3) %Recovery = (Conc.buffer chamber + Conc.plasma chamber)/Conc.Total sample × 100 (4) %Remaining = Conc.6h/Conc.0h × 100 (5)

rat plasma proteins = experiment: as above; format: in vitro ADME; details: for Remaining: 6 h
Description: as §7, §8

CYP1A2 = experiment: CYP induction (enzyme activity) in cryopreserved human hepatocytes, CYP1A2; details: for fold induction at 72 h, 0.15 µM / fold induction at 72 h, 1.5 µM / fold induction at 72 h, 5 µM / fold induction at 72 h, 15 µM: human, plated cryopreserved human hepatocytes
Description: The UPLC–MS/MS (SHIMADZU, LC-30AD) equipped with waters Xselect®HSS T3 2.5 μm (2.1 × 50 mm) was used to detect the marker metabolites in the enzyme activity assay. The fold-induction enzyme activity was determined using the ratio calculation (the calculation details are available in the Supplementary Materials).
CYP activity was expressed as pmol/min/million cells where pmol was defined as the amount of metabolite formed during the reaction. […] The fold-induction enzyme activity was determined by the ratio:
Fold of induction = CYP activity(induced) / CYP activity(vehicle)
% of positive control = (𝑪𝒀𝑷 𝒂𝒄𝒕𝒊𝒗𝒊𝒕𝒚(𝒊𝒏𝒅𝒖𝒄𝒆𝒅)ି 𝑪𝒀𝑷 𝒂𝒄𝒕𝒊𝒗𝒊𝒕𝒚(𝑫𝑴𝑺𝑶))(𝑪𝒀𝑷 𝒂𝒄𝒕𝒊𝒗𝒊𝒕𝒚(𝒑𝒐𝒔𝒊𝒕𝒊𝒗𝒆 𝒄𝒐𝒏𝒕𝒓𝒐𝒍)ି 𝑪𝒀𝑷 𝒂𝒄𝒕𝒊𝒗𝒊𝒕𝒚(𝑫𝑴𝑺𝑶))х 𝟏𝟎𝟎 Based on the enzyme activity, a minimum of 2-fold increase of a response compared to vehicle control and ≥ 20% of the positive control was considered as the cutoff for a positive signal in in vitro induction

[3] = Plasma protein binding by equilibrium dialysis, mouse; format: in vitro ADME; details: plasma (EDTA-K2 as anticoagulant)
Description: as §7, §8

mouse plasma proteins = experiment: as above; format: in vitro ADME; details: for Remaining: 6 h
Description: as §7, §8

CYP3A5, sequence (P20815 whole entry): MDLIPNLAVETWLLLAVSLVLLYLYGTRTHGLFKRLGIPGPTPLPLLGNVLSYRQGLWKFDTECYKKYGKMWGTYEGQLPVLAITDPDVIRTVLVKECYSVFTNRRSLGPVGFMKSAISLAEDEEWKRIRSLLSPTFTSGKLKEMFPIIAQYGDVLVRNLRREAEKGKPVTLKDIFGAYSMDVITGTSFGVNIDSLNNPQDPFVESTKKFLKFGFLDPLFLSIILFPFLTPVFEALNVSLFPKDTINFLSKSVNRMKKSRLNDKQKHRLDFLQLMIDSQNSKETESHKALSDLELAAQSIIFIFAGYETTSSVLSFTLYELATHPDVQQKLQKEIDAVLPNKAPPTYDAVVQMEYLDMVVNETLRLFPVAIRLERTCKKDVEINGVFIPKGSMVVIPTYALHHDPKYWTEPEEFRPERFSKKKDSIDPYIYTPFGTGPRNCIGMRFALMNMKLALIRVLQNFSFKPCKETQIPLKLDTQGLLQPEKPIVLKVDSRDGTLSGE

## C[C@]12CC[C@@H]3c4ccc(B(O)O)cc4C[C@@H](CCCCCCCCC[S+]([O-])CCCC(F)(F)C(F)(F)F)[C@H]3[C@@H]1CC[C@@H]2O (stereo partly drawn) [ZB716, fulvestrant-3-boronic acid]
CYP3A5; human
  half-life at 2 µM: 2.06 ± 0.33 min
CYP3A5; recombinant CYP3A5, 2 µM ZB716
  Clint: 6.86 µL/min/pmol CYP and 6.86 ± 1.12 µL/min/pmol CYP
[1]; read-out: Recovery A to B
  recovery at 120 min, 1 μM: < 66.6%
  recovery at 120 min, 5 μM: < 67%
  recovery at 120 min, 15 μM: 75.7 ± 2%
[1]; read-out: Recovery B to A
  recovery at 120 min, 1 μM: 66.5 ± 0.7%
  recovery at 120 min, 5 μM: 73.7 ± 1.5%
  recovery at 120 min, 15 μM: 84.2 ± 4.8%
[1]; Caco-2, 1 μM
  Papp A→B at 120 min, 1 μM: < 0.778 ×10⁻⁶ cm/s
  Papp B→A at 120 min, 1 μM: 0.747 ± 0.0316 ×10⁻⁶ cm/s
  efflux ratio at 120 min, 1 μM: > 0.935
[1]; Caco-2, 5 μM
  Papp A→B at 120 min, 5 μM: < 0.159 ×10⁻⁶ cm/s
  Papp B→A at 120 min, 5 μM: 0.82 ± 0.127 ×10⁻⁶ cm/s
  efflux ratio at 120 min, 5 μM: > 4.55
[1]; Caco-2, 15 μM
  Papp A→B at 120 min, 15 μM: 0.188 ± 0.021 ×10⁻⁶ cm/s
  Papp B→A at 120 min, 15 μM: 0.534 ± 0.028 ×10⁻⁶ cm/s
  efflux ratio at 120 min, 15 μM: 2.87 ± 0.49
Caco-2 cell monolayers
  permeability class: low permeability
[2]; pH 7.4, 0.1 μM
  recovery at 6 h, 0.1 μM: < 94.4%
[2]; pH 7.4, 1 μM
  recovery at 6 h, 1 μM: < 94.9%
[2]; pH 7.4, 10 μM
  recovery at 6 h, 10 μM: < 82.1%
Rat plasma proteins; 0.1 μM
  Bound: >97.7%
  Unbound: <2.35%
  Remaining: 83.9 ± 8.2%
Rat plasma proteins; 1 μM
  Bound: >99.8%
  Unbound: <0.216%
  Remaining: 91.1 ± 2.1%
Rat plasma proteins; 10 μM
  Bound: >99.97%
  Unbound: <0.0281%
  Remaining: 84.7 ± 2.0%
CYP1A2; donor one, 0.15 µM
  Percent of Control: 2.92%
  fold induction at 72 h, 0.15 µM: 1.24 ± 0.1
CYP1A2; donor one, 1.5 µM
  Percent of Control: 18.4%
  fold induction at 72 h, 1.5 µM: 2.52 ± 0.17
CYP1A2; donor one, 5 µM
  Percent of Control: 73.6%
  fold induction at 72 h, 5 µM: 7.09 ± 0.78
CYP1A2; donor one, 15 µM
  Percent of Control: 80.0%
  fold induction at 72 h, 15 µM: 7.62 ± 1.63
CYP1A2; donor three, 0.15 µM
  Percent of Control: 3.78%
  fold induction at 72 h, 0.15 µM: 1.2 ± 0.22
CYP1A2; donor three, 1.5 µM
  Percent of Control: 45.0%
  fold induction at 72 h, 1.5 µM: 3.42 ± 0.2
CYP1A2; donor three, 5 µM
  Percent of Control: 41.6%
  fold induction at 72 h, 5 µM: 3.24 ± 0.53
CYP1A2; donor three, 15 µM
  Percent of Control: 20.3%
  fold induction at 72 h, 15 µM: 2.09 ± 0.49
CYP1A2; donor two, 0.15 µM
  Percent of Control: 0.777%
  fold induction at 72 h, 0.15 µM: 1.11 ± 0.05
CYP1A2; donor two, 1.5 µM
  Percent of Control: 8.38%
  fold induction at 72 h, 1.5 µM: 2.17 ± 0.03
CYP1A2; donor two, 5 µM
  Percent of Control: 17.4%
  fold induction at 72 h, 5 µM: 3.44 ± 0.18
CYP1A2; donor two, 15 µM
  Percent of Control: 12.6%
  fold induction at 72 h, 15 µM: 2.77 ± 0.34
[3]; pH 7.4, 0.1 μM
  recovery at 6 h, 0.1 μM: < 96%
[3]; pH 7.4, 1 μM
  recovery at 6 h, 1 μM: < 88.8%
[3]; pH 7.4, 10 μM
  recovery at 6 h, 10 μM: < 95%
Mouse plasma proteins; 0.1 μM
  Bound: >97.4%
  Unbound: <2.63%
  Remaining: 98.5 ± 14.5%
Mouse plasma proteins; 1 μM
  Bound: >99.7%
  Unbound: <0.266%
  Remaining: 92.2 ± 5.7%
Mouse plasma proteins; 10 μM
  Bound: >99.97%
  Unbound: <0.0272%
  Remaining: 97.4 ± 10.7%
